One assay addresses FGFR2 (Homo sapiens, UniProt P21802). Put plainly: FGFR wild type enzyme assay (HTRF KinEASE-TK), FGFR2. The conditions noted are these: Enz FGFR2 (nM).
Sequence of FGFR2 (P21802 399-821 limits assumed): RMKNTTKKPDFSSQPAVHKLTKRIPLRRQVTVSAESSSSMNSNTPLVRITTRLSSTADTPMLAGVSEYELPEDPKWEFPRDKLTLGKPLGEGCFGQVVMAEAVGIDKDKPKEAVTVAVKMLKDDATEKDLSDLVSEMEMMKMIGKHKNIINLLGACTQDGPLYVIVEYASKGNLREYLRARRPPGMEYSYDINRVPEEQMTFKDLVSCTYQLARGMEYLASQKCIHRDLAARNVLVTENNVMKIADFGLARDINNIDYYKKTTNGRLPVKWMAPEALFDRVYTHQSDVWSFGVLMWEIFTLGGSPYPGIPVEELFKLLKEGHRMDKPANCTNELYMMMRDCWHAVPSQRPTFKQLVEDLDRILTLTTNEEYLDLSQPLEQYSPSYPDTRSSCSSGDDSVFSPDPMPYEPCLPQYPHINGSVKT
The compound `CN1CCC[C@H]1C(=O)N1CCC(n2cc(-c3cc(Sc4ccccn4)c4c(C#N)cnn4c3)cn2)CC1` [Example 94, 6-[1-[1-[(2S)-1-methylpyrrolidine-2-carbonyl]-4-piperidyl]pyrazol-4-yl]-4-(2-pyridylsulfanyl) pyrazolo[1,5-a]pyridine-3-carbonitrile] came in with a 50% inhibitory concentration (IC50) of 2 nM. The compound `CC(=O)N1CCC(n2cc(-c3cc(Sc4ccccn4)c4c(C#N)cnn4c3)cn2)CC1` [Example 93, 6-[1-(1-acetyl-4-piperidyl)pyrazol-4-yl]-4-(2-pyridylsulfanyl)pyrazolo [1,5-a]pyridine-3-carbonitrile] showed an IC50 of 3 nM. On the same count and under the same terms, the figure for `CCSc1cc(-c2cnn([C@H]3CCCNC3)c2)cn2ncc(C#N)c12` [Example 51, 4-ethylsulfanyl-6-[1-[(3S)-3-piperidyl]pyrazol-4-yl]pyrazolo[1,5-a]pyridine-3-carbonitrile] is 1 nM; for `Cn1ncc2cc(Sc3cc(-c4cnn([C@H]5CCCNC5)c4)cn4ncc(C#N)c34)ccc21` [Example 57, 4-(1-methylindazol-5-yl)sulfanyl-6-[1-[(3S)-3-piperidyl]pyrazol-4-yl]pyrazolo[1,5-a]pyridine-3-carbonitrile] it is 13 nM; for `Cc1c(-c2cc(Sc3cccn4cncc34)c3c(C#N)cnn3c2)cnn1C1CCN(C)CC1` [Example 120, 4-imidazo[1,5-a]pyridin-8-ylsulfany1-6-[5-methyl-1-(1-methyl-4-piperidyl)pyrazol-4-yl]pyrazolo[1,5-a]pyridine-3-carbonitrile] it is 1 nM. Still for that read-out and setting: to `N#Cc1cnn2cc(-c3cnn([C@H]4CCCNC4)c3)cc(SC3CCC3)c12` [Example 54, 4-cyclobutylsulfanyl-6-[1-[(3S)-3-piperidyl]pyrazol-4-yl]pyrazolo[1,5-a]pyridine-3-carbonitrile] belongs 1 nM; to `N#Cc1cnn2cc(-c3cnn([C@H]4CCCNC4)c3)cc(Sc3cc(C(F)(F)F)ccn3)c12` [Example 64, 6-[1-[(3S)-3-piperidyl]pyrazol-4-y1]-4-[[4-(trifluoromethyl)-2-pyridyl]sulfanyl]pyrazolo[1,5-a]pyridine-3-carbonitrile], 61 nM; to `CC(C)Sc1cc(-c2cnn([C@H]3CCCN(CCO)C3)c2)cn2ncc(C#N)c12` [Example 89, 6-[1-[(3S)-1-(2-hydroxyethyl)-3-piperidyl]pyrazol-4-yl]-4-isopropylsulfanyl-pyrazolo[1,5-a]pyridine-3-carbonitrile], 1 nM.

The same assay, now with this note: Enz FGFR2 (nM), FGFR2 wild type enzyme.
In turn, `Cc1c(-c2cc(Sc3ncccc3F)c3c(C#N)cnn3c2)cnn1[C@@H]1CC[C@H](O)[C@H](O)C1` [Example 296, 6-(1-((1R,3R,4S)-3,4-dihydroxycyclohexyl)-5-methyl-1H-pyrazol-4-yl)-4-((3-fluoropyridin-2-yl)thio)pyrazolo[1,5-a]pyridine-3-carbonitrile] showed an IC50 of 2 nM. In turn, `CN[C@]1(C)CC[C@H](n2ncc(-c3cc(Sc4ccc(F)cc4C#N)c4c(C#N)cnn4c3)c2C)CC1` [Example 326, 4-((2-cyano-4-fluoorphenyl)thio)-6-(5-methyl-1-((1s,4s)-4-methyl-4-(methylamino)cyclohxyl)-1H-pyrazol-4-eyl)pyrazolo[1,5-a]pyridine-3-carbonitrile] registered an IC50 of 1 nM. For `Cc1c(-c2cc(Sc3ncccc3F)c3c(C#N)cnn3c2)cnn1C1CC2(CCNCC2)C1` [Example 162, 4-((3-fluoropyridin-2-yl)thio)-6-(5-methyl-1-(7-azaspiro[3.5]nonan-2-yl)-1H-pyrazol-4-yl)pyrazolo[1,5-a]pyridine-3-carbonitrile], half-maximal inhibition (IC50) required 1 nM. On to `Cc1c(-c2cc(Sc3c(F)cc(F)cc3C#N)c3c(C#N)cnn3c2)cnn1C1CCNCC1` [Example 145, 4-((2-cyano-4,6-difluorophenyl)thio)-6-(5-methyl-1-(piperidin-4-yl)-1H-pyrazol-4-yl)pyrazolo[1,5-a]pyridine-3-carbonitrile], for which the IC50 came to 7 nM. As for `Cc1c(-c2cc(Sc3ccccc3C#N)c3c(C#N)cnn3c2)cnn1C1CCN(Cc2ccccn2)CC1` [Example 267, 4-((2-cyanophenyl)thio)-6-(5-methyl-1-(1-(pyridin-2-ylmethyl)piperidin-4-yl)-1H-pyrazol-4-yl)pyrazolo[1,5-a]pyridine-3-carbonitrile], it took 0.6 nM to reach half-maximal inhibition (IC50).

The compound `Cc1c(-c2cc(Sc3ncccc3F)c3c(C#N)cnn3c2)cnn1[C@H]1CC[C@@](C)(N)CC1` [Example 282, 6-(1-((1s,4s)-4-amino-4-methylcyclohexyl)-5-methyl-1H-pyrazol-4-yl)-4-((3-fluoropyridin-2-yl)thio)pyrazolo[1,5-a]pyridine-3-carbonitrile] had a half-inhibitory concentration (IC50) of 1 nM.

Consider `Cc1c(-c2cc(Sc3ncccc3F)c3c(C#N)cnn3c2)cnn1[C@H]1CCCN(S(C)(=O)=O)C1` [Example 165, (S)-4-((3-fluoropyridin-2-yl)thio)-6-(5-methyl-1-(1-(methylsulfonyl)piperidin-3-yl)-1H-pyrazol-4-yl)pyrazolo[1,5-a]pyridine-3-carbonitrile], for which it took 2 nM to reach half-maximal inhibition (IC50).

The same assay, now with this note: Enz FGFR2 (nM), FGFR2 wild type enzyme assay.
Take `Cc1c(-c2cc(Sc3ccc(F)cn3)c3c(C#N)cnn3c2)cnn1[C@H]1CCCN(C)C1` [Example 343, (S)-4-((5-fluoropyridin-2-yl)thio)-6-(5-methyl-1-(1-methylpiperidin-3-yl)-1H-pyrazol-4-yl)pyrazolo[1,5-a]pyridine-3-carbonitrile]: half-maximal inhibition (IC50) required 9 nM. As for `Cc1c(-c2cc(Sc3ccc(F)cc3C#N)c3c(C#N)cnn3c2)cnn1[C@@H]1CCC(C)(C)NC1` [Example 528, 4-(2-cyano-4-fluoro-phenyl)sulfanyl-6-[1-[(3R)-6,6-dimethyl-3-piperidyl]-5-methyl-pyrazol-4-yl]pyrazolo[1,5-a]pyridine-3-carbonitrile], it took 2.5 nM to reach half-maximal inhibition (IC50). The compound `Cc1c(-c2cc(Sc3ccc(F)cc3C#N)c3c(C#N)cnn3c2)cnn1[C@@H]1C[C@H]2CC[C@@H](C1)N2` [Example 366, 6-(1-((1R,3s,5S)-8-azabicyclo[3.2.1]octan-3-yl)-5-methyl-1H-pyrazol-4-yl)-4-((2-cyano-4-fluorophenyl)thio)pyrazolo [1,5-a]pyridine-3-carbonitrile] returned a 50% inhibitory concentration (IC50) of 0.6 nM. Compound `CC(=O)N1CCC(n2ncc(-c3cc(Sc4ccccc4C#N)c4c(C#N)cnn4c3)c2F)CC1` [Example 398, 6-(1-(1-acetylpiperidin-4-yl)-5-fluoro-1H-pyrazol-4-yl)-4-((2-cyanophenyl)thio)pyrazolo [1,5-a]pyridine-3-carbonitrile] had an IC50 of 2 nM.

Compound `CC(=O)N[C@H]1CC[C@@H](n2cc(-c3cc(Sc4ncccc4F)c4c(C#N)cnn4c3)c(C)n2)CC1` [Example 393, N-((1s,4s)-4-(4-(3-cyano-4-((3-fluoropyridin-2-yl)thio)pyrazolo[1,5-a]pyridin-6-yl)-3-methyl-1H-pyrazol-1-yl)cyclohexyl)acetamide] had a 50% inhibitory concentration (IC50) of 6 nM. Turning to `N#Cc1ccccc1Sc1cc(-c2cnn(CCC(=O)N3CC[C@@H](O)C3)c2)cn2ncc(C#N)c12` [Example 673, (R)-4-((2-cyanophenyl)thio)-6-(1-(3-(3-hydroxypyrrolidin-1-yl)-3-oxopropyl)-1H-pyrazol-4-yl)pyrazolo[1,5-a]pyridine-3-carbonitrile], the IC50 was 0.2 nM.

As for `Cc1c(-c2cc(Sc3ccc(F)cc3C#N)c3c(C#N)cnn3c2)cnn1[C@H]1CCCC[C@@H]1O` [Example 633, 4-((2-cyano-4-fluorophenyl)thio)-6-(1-((2S,2S)-2-hydroxycyclohexyl)-5-methyl-1H-pyrazol-4-yl)pyrazolo[1,5-a]pyridine-3-carbonitrile], inhibition was half-maximal at 1 nM (IC50). The same measure, in the same setting: to `C[C@H](O)Cn1cc(-c2cc(Sc3ccccc3C#N)c3c(C#N)cnn3c2)cn1` [Example 568, (S)-4-((2-cyanophenyl)thio)-6-(1-(2-hydroxypropyl)-1H-pyrazol-4-yl)pyrazolo[1,5-a]pyridine-3-carbonitrile] belongs 1 nM; to `N#Cc1cnn2cc(-c3cn([C@H]4CCCNC4)nc3F)cc(Sc3ncccc3F)c12` [Example 577, (S)-6-(3-fluoro-1-(piperidin-3-yl)-1H-pyrazol-4-yl)-4-((3-fluoropyridin-2-yl)thio)pyrazolo[1,5-a]pyridine-3-carbonitrile], 7 nM. `COC(=O)N1CCC(n2cc(-c3cc(Sc4ncccc4F)c4c(C#N)cnn4c3)cn2)CC1` [Example 478, methyl 4-(4-(3-cyano-4-((3-fluoropyridin-2-yl)thio)pyrazolo[1,5-a]pyridin-6-yl)-1H-pyrazol-1-yl)piperidine-1-carboxylate] displayed a half-maximal inhibitory concentration (IC50) of 1 nM.

`Cc1c(-c2cc(Sc3ccccc3C#N)c3c(C#N)cnn3c2)cnn1[C@@H]1CCNC(=O)C1` [Example 643] displayed an IC50 of 3 nM. With `CN1C[C@@H](n2cc(-c3cc(Sc4ccccc4C#N)c4c(C#N)cnn4c3)cn2)CCC1=O` [Example 647, (S)-4-((2-cyanophenyl)thio)-6-(1-(1-methyl-6-oxopiperidin-3-yl)-1H-pyrazol-4-yl)pyrazolo[1,5-a]pyridine-3-carbonitrile], it took 1 nM to reach half-maximal inhibition (IC50). Regarding `N#Cc1cnn2cc(-c3ccc(N4CCOCC4)nc3)cc(Sc3ncccc3F)c12` [Example 491, 4-((3-fluoropyridin-2-yl)thio)-6-(6-morpholinopyridin-3-yl)pyrazolo[1,5-a]pyridine-3-carbonitrile], the IC50 was determined as 1 nM. As for `N#Cc1cc(F)ccc1Sc1cc(-c2ccc(N3CCOC(CO)C3)nc2)cn2ncc(C#N)c12` (stereo not drawn) [Example 646, 4-((2-cyano-4-fluorophenyl)thio)-6-(6-(2-(hydroxymethyl)morpholi-no)pyridin-3-yl)pyrazolo[1,5-a]pyridine-3-carbonitrile], half-maximal inhibition (IC50) was put at 1 nM. The compound `N#Cc1ccccc1Sc1cc(-c2cnn(CC(=O)N3CCNCC3)c2)cn2ncc(C#N)c12` [Example 670, 4-((2-cyanophenyl)thio)-6-(1-(2-oxo-2-(piperazin-1-yl)ethyl)-1H-pyrazol-4-yl)pyrazolo[1,5-a]pryridine-3-carbonitrile] displayed an IC50 of 1 nM.

The values above are taken from US20240270741A1 (Cogent Biosciences, Inc., priority 2023, published 2024).
